The values below come from publication PMC6523311, “Synthesis and Biological Evaluation of RGD–Cryptophycin Conjugates for Targeted Drug Delivery” (Pharmaceutics, 2019).

One data set deals with T1, human αvβ3 integrin (Homo sapiens, UniProt P05106+P06756, DEL719-788).
T1 construct: purchased R&D Systems 3050-AV-050
As to the kind of experiment: competitive ELISA-like integrin binding assay (immobilized vitronectin, soluble integrin). The conditions noted are these: competition with immobilized vitronectin. Background: An ELISA detects its analyte on a solid surface through an enzyme-linked reagent.

Data set [1] concerns M21-L human melanoma cells (αv-, αvβ3-). As to the kind of experiment: MTT in vitro cytotoxicity assay, M21-L. The settings on record: 2 h treatment and additional 70 h incubation. It is filed as cell-based. The procedure: (§1) The human melanoma M21 and M21-L cells were kindly provided by Dr. David Cheresh and The Scripps Research Institute (La Jolla, CA, USA). Cells were cultured in RPMI 1640 supplemented with 10% fetal bovine serum (FBS), 1% L-glutamine and 1% Penicillin/Streptomycin in a humidified incubator at 37 °C and 5% CO2.
(§2) Cell viability was quantified by 3-(4,5-dimethylthiazol-2-yl)-2,5-diphenyltetrazolium bromide (MTT) assay. Cells were plated at a density of 3000 cells/well (Nunc® MicroWell® flat-bottom 96-well plate, Thermo Fisher Scientific) and incubated overnight to allow adherence. The following day, cells were treated with serial dilutions of each compound or 0.1% DMSO as control. After 2 h of incubation, cells were centrifuged at 1200 rpm for 5 min; supernatant containing the compounds was removed and replaced with fresh medium. Cells were further incubated for 70 h as described above, and at the end of treatment, 5 µL of MTT (5 mg/mL in deionized H2O, #M5655, Sigma Aldrich) were added to each well and the cells incubated for another 2 h. Finally, 100 µL of lysis buffer (10% SDS, 10 mM HCl) were added, and cells were placed in the incubator overnight for the formazan crystal solubilization. Absorbance at 540 nm was measured using FLUOstar Omega (BMG Labtech, Ortenberg, Germany) instrument and the growth inhibition ratio was calculated. Blank controls detecting cell-free media absorbance were performed in parallel. Three experimental replicates were used. The half-maximal inhibitory concentration values (IC50) were obtained from viability curves by fitting data to the four-parameter logistic equation using GraphPad Prism 6 (GraphPad Software, San Diego, CA, USA). The cell viability was expressed as percentage relative to the respective control conditions.

Data set [2] in a line: plasma metabolic stability assay, mouse plasma. Type of data set: in vitro ADME. The settings on record: 24 h. The procedure:
(§3) The sample preparation and the metabolic analysis of the conjugates was carried out similarly to a previously described method. In a 96-well plate, the stock solutions (3 mM in dimethyl sulfoxide (DMSO)) of the conjugates and the control compound were diluted with 250 μL of plasma (pooled heparinized mouse ICR/CD1 M plasma #08 or human plasma #MPLLIHP-M, #BHR1003077, BioreclamationIVT, Westbury, NY, USA) to give a 3-µM concentration and incubated at 37 °C. At each sampling time an aliquot of 30 µL was transferred into a 96-deep-well plate and the reaction was stopped with 120 µL of acetonitrile (ACN) containing 0.1% HCOOH and 400 ng/mL of warfarin as internal standard (IS). This mixture was centrifuged at 1100× g for 30 min at 4 °C and 50 µL of supernatants were transferred into a clean 96-deep-well plate and diluted with 50 µL of 0.1% HCOOH in water. Samples were stored at −80 °C prior to UPLC-HRMS analysis (see Supplementary Materials). The stability was determined based on the disappearance of the test compound as a function of incubation time, using area ratios (analyte peak area vs internal standard peak area). The elimination constant k was calculated by plotting mean disappearance values on a semi-logarithmic scale and fitting with a best fit linear regression using Microsoft Excel. The half-life (t1/2) expressed in hours was determined using equation: t1/2 = ln2/(−k). […]

Data set [3] has as its system M21 human melanoma cells (αvβ3+). As to the kind of experiment: MTT in vitro cytotoxicity assay, M21. The settings on record: for IC50: Homo sapiens, MTT, 2 h treatment and additional 70 h incubation. It is filed as cell-based. The procedure:
as §1, §2

Data set [4] in a line: plasma metabolic stability assay, human plasma. It is filed as in vitro ADME. The settings on record: 24 h. The procedure:
as §3

Data set [5] concerns the target T2, bovine spleen cathepsin B (Bos taurus, UniProt P07688).
T2 construct: cathepsin B (bovine spleen cathepsin B, #C6286, Sigma Aldrich); purchased Sigma Aldrich C6286; host or cells: bovine spleen
Briefly: cathepsin B cleavage assay. It is filed as in vitro ADME. The settings on record: cathepsin B 1 U/mL, 37 °C, pH 5.5, 5 µM substrate. The procedure:
L-cysteine (#C8152, Sigma Aldrich) was dissolved in acetate buffer/ethylenediaminetetraacetic acid (EDTA) 1 mM pH 5.5 to get a solution with a final concentration of L-cysteine of 28 mM. This solution was used to dilute an aliquot of cathepsin B (bovine spleen cathepsin B, #C6286, Sigma Aldrich) to 1.11 U/mL. Sample containing cathepsin B was pre-incubated at 37 °C for 15 min and then split into 45-µL aliquots in Eppendorf tubes, two replicates for each incubation time. Aliquots of 5 µL of 50 µM solutions of the substrates prepared in MeOH/H2O (50/50) were added to each tube, to get a final concentration of 5 µM. Tubes corresponding to t = 0 min contained 100 µL of 1% HCOOH in MeOH and were put in an ice bath to stop the reaction. All the other tubes were incubated at 37 °C in an oscillating thermostatic bath and reaction was stopped at the following incubation times: 0.25, 0.5, 1, 2, 4, and 6 h, as described for t = 0 min samples. Samples were centrifuged for 10 min at 14,000 rpm at 4 °C and filtered with regenerated cellulose syringe filters prior to injection in the HPLC-MS system (see Supplementary Materials). […] Substrates and possible metabolites were quantified based on calibration curves prepared in acetate buffer/EDTA/L-cysteine.

A word on the IC50: it is the point on the concentration scale where inhibition reaches its midpoint. The low end stands for higher potency, the high end for lower potency. On human αvβ3 integrin, `[N-]=[N+]=NCCC(=O)NCCCC[C@@H]1NC(=O)[C@@H](Cc2ccccc2)NC(=O)[C@H](CC(=O)O)NC(=O)CNC(=O)[C@H](CCCNC(=N)N)NC1=O` [compound 9] showed an IC50 of 0.71 nM.
As to `COc1ccc(C[C@H]2NC(=O)/C=C/C[C@@H]([C@H](C)[C@@H](OC(=O)CN)[C@@H](Cl)c3ccccc3)OC(=O)[C@H](CC(C)C)OC(=O)C(C)(C)CNC2=O)cc1Cl` [compound 4, Cryptophycin-55 glycinate], the half-maximal inhibitory concentration (IC50) in data set [1] was 0.14 ± 0.08 nM; in data set [3], 0.75 ± 0.11 nM. For the same molecule, the “stability in mouse plasma” value in data set [2] was “markedly improved stability compared to the parent compound”. Also, the “stability in human plasma” value in data set [4] was “good stability”.
`COc1ccc(C[C@H]2NC(=O)/C=C/C[C@@H]([C@H](C)[C@H]3O[C@@H]3c3ccccc3)OC(=O)[C@H](CC(C)C)OC(=O)C(C)(C)CNC2=O)cc1Cl` [compound 2, cryptophycin-52, reference compound]: the figures for the IC50 in data set [1] and in data set [3] were 0.02 nM and 0.07 nM, respectively. Moreover, the “stability in mouse plasma” value in data set [2] was “significant metabolism”. The “fold higher biological activity than cryptophycin-55 glycinate” value in data set [3] (M21 and M21-L cells, same test conditions) is on record as 10-20 fold.
Regarding `COc1ccc(C[C@H]2NC(=O)/C=C/C[C@@H]([C@H](C)[C@@H](OC(=O)CNC(=O)[C@@H]3CCCN3C(=O)CN)[C@@H](Cl)c3ccccc3)OC(=O)[C@H](CC(C)C)OC(=O)C(C)(C)CNC2=O)cc1Cl` [compound 12, Gly-Pro-Cry-55gly], the “cleavage and metabolism upon incubation with cathepsin B” value in data set [5] is on record as “not further metabolized to cryptophycin-55 glycinate”. Besides, the IC50 stood at 0.039 ± 0.01 nM in data set [1] and 0.15 ± 0.03 nM in data set [3].
